Source: patent US20250163002A1, “FUSED QUINONOXIME IMIDAZOLE, ONIUM DERIVATIVES THEREOF, PREPARATION AND USE THEREOF” (SHANGHAI JIAO TONG UNIVERSITY, priority 2022, published 2025)

Assays:
Assay type in all cases: cell-based
L929 = experiment: In vitro cell proliferation inhibition test (MTT), L929; details: unit inferred
MCF-7 = experiment: In vitro inhibition test for cancer cell proliferation (MTT), MCF-7; details: unit inferred
A549 = experiment: In vitro inhibition test for cancer cell proliferation (MTT), A549; details: unit inferred
HeLa = experiment: In vitro inhibition test for cancer cell proliferation (MTT), HeLa; details: 24 h or 48 h after addition, unit inferred

IC50 (MCF-7; Homo sapiens, MCF7, 24 h or 48 h after addition) [µM]	IC50 (A549; Homo sapiens, A549, 24 h or 48 h after addition) [µM]	IC50 (HeLa; Homo sapiens, HeLa) [µM]	Compound	IC50 (L929; 24 h or 48 h after addition) [µM]	IC50 (MCF-7; 24 h or 48 h after addition) [µM]	IC50 (A549; 24 h or 48 h after addition) [µM]	IC50 (HeLa) [µM]	IC50 (L929; Mus musculus, L929, 24 h or 48 h after addition) [µM]
			Cn1c[n+](C)c2c1C(=O)c1ccccc1/C2=N\O [Compound 91, (E)-1-methyl-4-(hydroxylimino)-3-methyl-9-oxo-4,9-dihydro-1H-naphthol[2,3-d]imidazole-3-iodide]	4.7	0.84	0.53	0.67	
			CCn1c[n+](C)c2c1C(=O)c1ccccc1/C2=N\O [Compound 92, (E)-1-ethyl-4-(hydroxylimino)-3-methyl-9-oxo-4,9-dihydro-1H-naphthol[2,3-d]imidazole-3-iodide]	13.5	0.94	0.54	1.63	
			CCCn1c[n+](C)c2c1C(=O)c1ccccc1/C2=N\O [Compound 93, (E)-4-(hydroxylimino)-3-methyl-9-oxo-1-propyl-4,9-dihydro-1H-naphthol[2,3-d]imidazole-3-iodide]	32.7	1.43	1.03	2.18	
0.84	0.67	1.43	CCCCn1c[n+](C)c2c1C(=O)c1ccccc1/C2=N\O [Compound 94, (E)-1-butyl-4-(hydroxylimino)-3-methyl-9-oxo-4,9-dihydro-1H-naphthol[2,3-d]imidazole-3-iodide]					39.2
			CC(C)n1c[n+](C)c2c1C(=O)c1ccccc1/C2=N\O [Compound 95, (E)-4-(hydroxylimino)-1-isopropyl-3-methyl-9-oxo-4,9-dihydro-1H-naphthol[2,3-d]imidazole-3-iodide]	26.3	2	1.89	18.3	
			CC(C)Cn1c[n+](C)c2c1C(=O)c1ccccc1/C2=N\O [Compound 96, (E)-4-(hydroxylimino)-1-isobutyl-3-methyl-9-oxo-4,9-dihydro-1H-naphthol[2,3-d]imidazole-3-iodide]	57.4	1.26	2.43	9.7	
			CCC(C)Cn1c[n+](C)c2c1C(=O)c1ccccc1/C2=N\O (stereo not shown) [Compound 97, (E)-4-(hydroxylimino)-3-methyl-1-(2-methylbutyl)-9-oxo-4,9-dihydro-1H-naphthol[2,3-d]imidazole-3-iodide]	74	1.05	1.37	1.97	
			C[n+]1cn(C(C)(C)C)c2c1/C(=N/O)c1ccccc1C2=O [Compound 98, (E)-1-(tert-butyl)-4-(hydroxylimino)-3-methyl-9-oxo-4,9-dihydro-1H-naphthol[2,3-d]imidazole-3-iodide]	38.9	1.81	0.59	2.18	
			C[n+]1cn(C2CC2)c2c1/C(=N/O)c1ccccc1C2=O [Compound 99, (E)-1-cyclopropyl-4-(hydroxylimino)-3-methyl-9-oxo-4,9-dihydro-1H-naphthol[2,3-d]imidazole-3-iodide]	19.8	1.63	1.72	5.74	
			COCCn1c[n+](C)c2c1C(=O)c1ccccc1/C2=N\O [Compound 100, (E)-4-(hydroxylimino)-1-(2-methoxyethyl)-3-methyl-9-oxo-4,9-dihydro-1H-naphthol[2,3-d]imidazole-3-iodide]	6.64	0.87	0.62	2.18	
			CC(C)=CCn1c[n+](C)c2c1C(=O)c1ccccc1/C2=N\O [Compound 101, (E)-4-(hydroxylimino)-3-methyl-1-(3-methyl-2-ene-1-yl)-9-oxo-4,9-dihydro-1H-naphthol[2,3-d]imidazole-3-iodide]	13.1	0.87	0.64	1.8	
			C[n+]1cn(Cc2ccccc2)c2c1/C(=N/O)c1ccccc1C2=O [Compound 102, (E)-1-benzyl-4-(hydroxylimino)-3-methyl-9-oxo-4,9-dihydro-1H-naphthol[2,3-d]imidazole-3-iodide]	37.4	0.89	0.63	1.05	
			CCOC(=O)Cn1c[n+](C)c2c1C(=O)c1ccccc1/C2=N\O [Compound 103, (E)-1-(2-ethoxy-2-ethoxy)-4-(hydroxylimino)-3-methyl-9-oxo-4,9-dihydro-1H-naphthol[2,3-d]imidazole-3-iodide]	> 100	1.63	0.6	2.73	
			C[n+]1cn(-c2ccccc2)c2c1/C(=N/O)c1ccccc1C2=O [Compound 104, (E)-4-(hydroxylimino)-3-methyl-9-oxo-1-phenyl-4,9-dihydro-1H-naphthol[2,3-d]imidazole-3-iodide]	> 100	1.43	12.2	12.5	
			Cc1cc(C)c(-n2c[n+](C)c3c2C(=O)c2ccccc2/C3=N\O)c(C)c1 [Compound 105, (E)-4-(hydroxylimino)-1-sym-trimethyl-3-methyl-9-oxo-4,9-dihydro-1H-naphthol[2,3-d]imidazole-3-iodide]	> 100	6.12	1.11	22.6	
			C[n+]1cn(Cc2cccs2)c2c1/C(=N/O)c1ccccc1C2=O [Compound 106, (E)-4-(hydroxylimino)-3-methyl-9-oxo-1-(thiophene-2-yl-methyl)-4,9-dihydro-1H-naphthol[2,3-d]imidazole-3-iodide]	> 100	20.2	11.2	9.2	
			C[n+]1cn(CC2OCCO2)c2c1/C(=N/O)c1ccccc1C2=O [Compound 107, (E)-1-((1,3-dioxoheterocycle-2-yl)methyl)-4-(hydroxylimino)-3-methyl-9-oxo-4,9-dihydro-1H-naphthol[2,3-d]imidazole-3-iodide]	> 100	9.85	0.6	> 100	
			C[n+]1cn(Cc2ccc(F)cc2)c2c1/C(=N/O)c1ccccc1C2=O [Compound 108, (E)-1-(4-fluorobenzyl)-4-(hydroxylimino)-3-methyl-9-oxo-4,9-dihydro-1H-naphthol[2,3-d]imidazole-3-iodide]	> 100	1.63	0.5	2.38	
			C[n+]1cn(-c2ccccc2F)c2c1/C(=N/O)c1ccccc1C2=O [Compound 109, (E)-1-(2-fluorophenyl)-4-(hydroxylimino)-3-methyl-9-oxo-4,9-dihydro-1H-naphthol[2,3-d]imidazole-3-iodide]	> 100	57.8	11.2	50	
			C[n+]1cn(-c2cccc(F)c2)c2c1/C(=N/O)c1ccccc1C2=O [Compound 110, (E)-1-(3-fluorophenyl)-4-(hydroxylimino)-3-methyl-9-oxo-4,9-dihydro-1H-naphthol[2,3-d]imidazole-3-iodide]	> 100	42.3	17.2	49	
			C[n+]1cn(-c2ccc(F)cc2)c2c1/C(=N/O)c1ccccc1C2=O [Compound 111, (E)-1-(4-fluorophenyl)-4-(hydroxylimino)-3-methyl-9-oxo-4,9-dihydro-1H-naphthol[2,3-d]imidazole-3-iodide]	> 100	24.6	11.6	19.7	
			C[n+]1cn(Cc2ccccc2F)c2c1/C(=N/O)c1ccccc1C2=O [Compound 112, (E)-1-(2-fluorobenzyl)-4-(hydroxylimino)-3-methyl-9-oxo-4,9-dihydro-1H-naphthol[2,3-d]imidazole-3-iodide]	27.3	3.7	0.57	7.7	
			C[n+]1cn(Cc2cccc(F)c2)c2c1/C(=N/O)c1ccccc1C2=O [Compound 113, (E)-1-(3-fluorobenzyl)-4-(hydroxylimino)-3-methyl-9-oxo-4,9-dihydro-1H-naphthol[2,3-d]imidazole-3-iodide]	73.4	10	0.57	7.1	
			COc1ccc(-n2c[n+](C)c3c2C(=O)c2ccccc2/C3=N\O)cc1 [Compound 114, (E)-4-(hydroxylimino)-1-(4-methoxyphenyl)-3-methyl-9-oxo-4,9-dihydro-1H-naphthol[2,3-d]imidazole-3-iodide]	> 100	33	2.42	33.8	
			COc1ccc(Cn2c[n+](C)c3c2C(=O)c2ccccc2/C3=N\O)cc1 [Compound 115, (E)-4-(hydroxylimino)-1-(4-methoxybenzyl)-3-methyl-9-oxo-4,9-dihydro-1H-naphthol[2,3-d]imidazole-3-iodide]	17.6	1.64	0.13	2.5	
			C[n+]1cn(-c2ccc(F)c(Cl)c2)c2c1/C(=N/O)c1ccccc1C2=O [Compound 116, (E)-1-(3-chloro-4-fluorophenyl)-4-(hydroxylimino)-3-methyl-9-oxo-4,9-dihydro-1H-naphthol[2,3-d]imidazole-3-iodide]	> 100	> 100	2.3	> 100	
			C[n+]1cn(-c2ccc(F)c(Br)c2)c2c1/C(=N/O)c1ccccc1C2=O [Compound 117, (E)-1-(3-bromo-4-fluorophenyl)-4-(hydroxylimino)-3-methyl-9-oxo-4,9-dihydro-1H-naphthol[2,3-d]imidazole-3-iodide]	> 100	67.7	5.2	87.8	
			Cn1c[n+](C)c2c1C(=O)c1cccc([N+](=O)[O-])c1/C2=N\O [Compound 118, (E)-4-(hydroxylimino)-1,3-dimethyl-5-nitro-9-oxo-4,9-dihydro-1H-naphthol[2,3-d]imidazole-3-iodide]	12.9	0.89	0.54	0.78	
